A short description of data set [1]: Long-term/accelerated stability test of crystalline salt forms in sealed aluminum foil bags. Format: physicochemical. The conditions noted are these: for Crystalline form: after storage. On the procedure: The crystalline form α of mesylate, the crystalline form α of sulfate, the crystalline form I of maleate, the crystalline form a of p-toluenesulfonate and the crystalline form a of oxalate were stored in sealed aluminum foil bags and subjected to stability test under the conditions of −20° C., 4° C., 25° C./60% RH and 40° C./75% RH.

The target of the next data set is ATR enzyme (Homo sapiens (Human), UniProt Q13535). Put plainly: Inhibitory effect on ATR enzyme (HTRF, phospho-p53). The class given is biochemical. An excerpt:
The following method was used to determine the inhibitory effect of the compounds disclosed herein on ATR enzyme. The experimental method was briefly described as follows:
• 1. ATR enzyme (Eurofins Pharma Discovery Services, 14-953-M) • 2. GST-tag P53 protein (Eurofins Pharma Discovery Services, 14-952-M) • 3. 384-well plate (Thermo Scientific, 267462) • 4. U-shaped bottom 96-well plate (Corning, 3795) • 5. MAb Anti-phospho p53-Eu cryptate (Cisbio, 61P08KAE) • 6. MAb Anti GST-d2 (Cisbio, 61GSTDLF) • 7. ATP solution (Promega, V916B) • 8. EDTA (Thermo Scientific, AM9260G) • 9. HEPES (Gibco, 15630-080) • 10. Microplate reader (BMG, PHERAsta)
1 nM ATR enzyme, 50 nM P53 protein, 7.435 μM ATP and small molecule compounds of different concentrations (serially 3-fold diluted from 1 μM to the 11th concentration) were mixed and incubated at room temperature for 2 h. A terminating buffer (12.5 mM HEPES, 250 mM EDTA) was added. The mixture was well mixed before 0.42 ng/well of mAb anti-phospho p53-Eu cryptate and 25 ng/well of mAb anti GST-d2 were added. The mixture was incubated overnight at room temperature, and the fluorescence signals at 620 nm and 665 nm were detected using a PHERAstar system. Data were processed using GraphPad software.
(In general: TR-FRET usually uses a lanthanide donor and a delayed reading to cut background.)

The test system of another data set is LoVo cells. Put plainly: Cell proliferation assay (intracellular ATP content, CellTiter-Glo). The class given is cell-based, human. As to conditions: 3 days. The source says:
The following method evaluates the inhibitory effect of the compounds disclosed herein on the proliferation of LoVo cells via IC50 by measuring the intracellular ATP content. The experimental method was briefly described as follows:
• 1. LoVo, human colon cancer cells (Cobioer, Nanjing, CBP60032) • 2. Fetal bovine serum (GIBCO, 10091-148) • 3. F-12K Medium (Gibco, 21127030) • 4. CellTite-Glo reagent (Promega, G7573) • 5. 96-well cell culture plate (Corning, 3903) • 6. Pancreatin (Invitrogen, 25200-072) • 7. Microplate reader (BMG, PHERAsta) • 8. Cell counter (Countstar, Shanghai, IC1000)
LoVo cells were cultured in an F-12K culture medium containing 10% of FBS, and passaged twice or thrice a week in a passage ratio of 1:3 or 1:5. During passage, cells were digested by pancreatin, transferred to a centrifuge tube, and centrifuged for 3 min at 1200 rpm. The supernatant was discarded, and fresh culture medium was added to resuspend the cells. To a 96-well cell culture plate, 90 μL of the cell suspension was added at a density of 3.88×10^4 cells/mL. To peripheral wells of the 96-well plate, only 100 μL of complete medium was added. […]
The test samples were each diluted to 2 mM in DMSO and serially 3-fold diluted to the 10th concentration. […] The chemiluminescence signals were read by a PHERAstar system, and the data were processed by GraphPad software.
(In general: Cellular ATP, detected with luciferase, serves as a proxy for viable cell number.)

Data set [2] can be described thus: Pharmacokinetic study in rats after intragastric administration. Format: in vivo. As to conditions: both sexes, rat, plasma, po, SD rats, 2 mg/kg. On the procedure:
The drug concentrations in the plasma of the test animals (rats) at different time points after intragastric administration of the compound of Example 1 were determined by an LC/MS/MS method. The pharmacokinetic behavior in rats of the compound disclosed herein was studied and its pharmacokinetic profile was evaluated.
12 healthy adult SD rats (half male and half female; purchased from Vital River) were evenly divided into 3 groups of 4.
A certain amount of the compound was added to a mixed solvent containing 5% of DMSO, 5% of Tween 80 and 90% of normal saline to obtain a colorless and clear solution.
SD rats were intragastrically administered with the compound after fasting overnight, at a dose of 2 mg/kg and a volume of 10.0 mL/kg.
Rats were intragastrically administered with the compound of Examples 1. 0.2 mL of blood was collected from the orbit pre-dose and at 0.25, 0.5, 1.0, 2.0, 4.0, 6.0, 8.0, 11.0 and 24.0 h post-dose. The blood samples were transferred to EDTA-K2kk anticoagulation tubes, centrifuged at 4° C. and 11000 rpm for 5 min to separate out plasma. The plasma samples were stored at −20° C. The rats were fed 2 h after administration.
The plasma concentration of the compound in rats after intragastric administration was determined: 25 μL of rat plasma at each time point post-dose was mixed with 50 μL of internal standard and 175 μL of acetonitrile; the mixture was vortexed for 5 min and centrifuged for 10 min at 4000 rpm. 1 μL of supernatant was taken for LC/MS/MS analysis.

The mark [3] stands for this setting: long-term/accelerated stability test, overall.
Where [4] appears, read: Initial, printed in the 25° C./60% RH row.

ATR enzyme, sequence (Q13535 whole entry): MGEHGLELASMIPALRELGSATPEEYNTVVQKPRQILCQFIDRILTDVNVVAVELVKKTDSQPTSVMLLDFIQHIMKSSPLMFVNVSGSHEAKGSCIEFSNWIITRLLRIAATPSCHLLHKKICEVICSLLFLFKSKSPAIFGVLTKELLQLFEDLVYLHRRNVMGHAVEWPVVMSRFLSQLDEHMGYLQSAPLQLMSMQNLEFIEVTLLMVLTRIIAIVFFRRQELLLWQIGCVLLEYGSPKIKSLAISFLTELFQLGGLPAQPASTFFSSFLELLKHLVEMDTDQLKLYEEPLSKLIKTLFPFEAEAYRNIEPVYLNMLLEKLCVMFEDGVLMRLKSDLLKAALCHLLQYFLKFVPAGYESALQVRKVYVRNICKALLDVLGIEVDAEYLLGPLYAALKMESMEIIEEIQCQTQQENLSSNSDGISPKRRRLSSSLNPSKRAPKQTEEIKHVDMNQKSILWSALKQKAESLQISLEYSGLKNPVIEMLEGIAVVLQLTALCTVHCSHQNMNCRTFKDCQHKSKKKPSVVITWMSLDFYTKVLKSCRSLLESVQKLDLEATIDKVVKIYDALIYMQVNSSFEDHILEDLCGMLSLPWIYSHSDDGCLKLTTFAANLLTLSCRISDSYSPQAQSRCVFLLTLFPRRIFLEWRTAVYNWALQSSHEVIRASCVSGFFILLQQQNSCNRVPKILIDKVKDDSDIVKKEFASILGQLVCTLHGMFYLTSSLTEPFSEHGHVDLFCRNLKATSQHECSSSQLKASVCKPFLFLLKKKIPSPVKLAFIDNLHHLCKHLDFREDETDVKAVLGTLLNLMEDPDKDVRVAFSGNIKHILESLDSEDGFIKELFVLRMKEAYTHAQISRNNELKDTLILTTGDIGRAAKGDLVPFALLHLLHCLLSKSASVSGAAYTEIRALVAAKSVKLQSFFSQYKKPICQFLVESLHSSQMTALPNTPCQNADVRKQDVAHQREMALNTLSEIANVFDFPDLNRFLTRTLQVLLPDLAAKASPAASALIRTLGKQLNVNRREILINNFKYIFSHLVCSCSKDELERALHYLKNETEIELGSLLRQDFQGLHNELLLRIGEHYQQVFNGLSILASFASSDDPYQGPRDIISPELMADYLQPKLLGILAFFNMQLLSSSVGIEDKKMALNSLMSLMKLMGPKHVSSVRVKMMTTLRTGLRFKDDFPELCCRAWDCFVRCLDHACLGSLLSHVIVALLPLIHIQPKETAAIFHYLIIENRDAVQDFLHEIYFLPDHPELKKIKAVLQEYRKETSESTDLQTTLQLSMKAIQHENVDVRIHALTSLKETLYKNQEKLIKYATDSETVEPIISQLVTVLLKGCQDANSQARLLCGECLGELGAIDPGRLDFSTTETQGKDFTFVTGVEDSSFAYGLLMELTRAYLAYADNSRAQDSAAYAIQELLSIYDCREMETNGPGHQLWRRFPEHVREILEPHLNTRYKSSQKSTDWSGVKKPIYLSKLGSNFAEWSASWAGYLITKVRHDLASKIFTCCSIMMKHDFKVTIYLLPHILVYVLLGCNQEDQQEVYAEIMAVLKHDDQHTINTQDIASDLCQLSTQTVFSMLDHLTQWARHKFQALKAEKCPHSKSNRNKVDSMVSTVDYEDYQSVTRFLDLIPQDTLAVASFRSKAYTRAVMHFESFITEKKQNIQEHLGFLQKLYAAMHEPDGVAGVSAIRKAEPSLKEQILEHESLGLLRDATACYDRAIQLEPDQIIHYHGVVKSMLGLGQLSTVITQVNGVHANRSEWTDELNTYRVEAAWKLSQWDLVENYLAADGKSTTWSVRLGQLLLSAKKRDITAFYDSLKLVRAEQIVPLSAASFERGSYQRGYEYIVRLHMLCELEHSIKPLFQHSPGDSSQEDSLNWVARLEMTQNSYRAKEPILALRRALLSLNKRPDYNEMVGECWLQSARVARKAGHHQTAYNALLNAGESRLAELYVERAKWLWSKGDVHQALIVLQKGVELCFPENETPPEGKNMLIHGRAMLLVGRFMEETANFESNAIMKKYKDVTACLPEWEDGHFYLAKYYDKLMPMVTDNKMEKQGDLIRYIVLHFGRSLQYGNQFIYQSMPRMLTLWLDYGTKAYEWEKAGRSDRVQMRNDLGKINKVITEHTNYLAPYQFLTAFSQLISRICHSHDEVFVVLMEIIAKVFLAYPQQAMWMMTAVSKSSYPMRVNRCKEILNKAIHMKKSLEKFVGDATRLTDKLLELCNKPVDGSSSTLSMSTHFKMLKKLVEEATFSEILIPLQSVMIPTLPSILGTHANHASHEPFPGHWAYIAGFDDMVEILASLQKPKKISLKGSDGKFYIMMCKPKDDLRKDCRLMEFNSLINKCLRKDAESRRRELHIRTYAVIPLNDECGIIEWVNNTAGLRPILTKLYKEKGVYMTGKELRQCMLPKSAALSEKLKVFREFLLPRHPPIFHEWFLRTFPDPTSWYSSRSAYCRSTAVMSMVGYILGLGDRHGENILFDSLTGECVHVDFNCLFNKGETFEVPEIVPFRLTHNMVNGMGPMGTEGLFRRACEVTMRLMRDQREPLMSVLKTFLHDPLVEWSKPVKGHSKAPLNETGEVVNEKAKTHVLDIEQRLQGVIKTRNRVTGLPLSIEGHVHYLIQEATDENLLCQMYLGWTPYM
ATR enzyme, sequence (Q8WXE1 whole entry partner): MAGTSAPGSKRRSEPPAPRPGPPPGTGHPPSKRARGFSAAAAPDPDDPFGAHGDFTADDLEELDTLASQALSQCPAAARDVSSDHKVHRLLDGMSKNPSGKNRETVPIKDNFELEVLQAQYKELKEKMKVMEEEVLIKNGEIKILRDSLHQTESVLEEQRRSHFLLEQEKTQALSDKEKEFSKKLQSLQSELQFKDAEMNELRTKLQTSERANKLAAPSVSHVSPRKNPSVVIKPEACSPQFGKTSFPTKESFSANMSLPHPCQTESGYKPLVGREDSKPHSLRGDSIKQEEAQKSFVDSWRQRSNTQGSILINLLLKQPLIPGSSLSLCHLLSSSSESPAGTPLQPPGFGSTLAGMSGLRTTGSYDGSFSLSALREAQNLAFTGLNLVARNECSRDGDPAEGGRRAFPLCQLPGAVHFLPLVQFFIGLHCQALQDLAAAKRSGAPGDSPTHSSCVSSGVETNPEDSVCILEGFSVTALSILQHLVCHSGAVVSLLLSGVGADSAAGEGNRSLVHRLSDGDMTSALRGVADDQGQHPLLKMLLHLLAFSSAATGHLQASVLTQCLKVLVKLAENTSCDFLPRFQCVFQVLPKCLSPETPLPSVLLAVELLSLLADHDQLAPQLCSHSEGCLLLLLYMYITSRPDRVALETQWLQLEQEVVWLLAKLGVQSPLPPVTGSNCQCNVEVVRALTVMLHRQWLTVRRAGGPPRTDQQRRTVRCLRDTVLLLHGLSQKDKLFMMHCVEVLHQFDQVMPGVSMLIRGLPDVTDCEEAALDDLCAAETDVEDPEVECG

For the compound `CC1COCCN1c1cc(C(C)(C)C#N)c2c(n1)c(-c1cc[nH]n1)nn2C.O=C(O)C=CC(=O)O` (stereo not shown) [Crystalline form I of maleate], the “Purity (%)” value in data set [1] (4° C., 1 month) was 98.99%; in data set [1] (4° C., 2 months), 98.99%; in data set [1] (4° C., 3 months), 99.00%; in data set [1] (25° C./60% RH, 1 month), 98.84%; in data set [1] (25° C./60% RH, 2 months), 98.82%; in data set [1] (25° C./60% RH, 3 months), 98.77%. The “Purity (%)” value in data set [1] (40° C./75% RH, 1 month) is reported as 98.59%; in data set [1] (40° C./75% RH, 2 months) it was 98.26%; in data set [1] (40° C./75% RH, 3 months), 98.30%; in data set [1] (Initial), 98.97%; in data set [1] (−20° C., 1 month) it was 99.04%; in data set [1] (−20° C., 2 months), 99.00%. In addition, in data set [1] (−20° C., 3 months), the “Purity (%)” value is 99.00%. Moreover, the Crystalline form entry in data set [1] (4° C.), in data set [1] (25° C./60% RH), in data set [1] (40° C./75% RH) and in data set [1] (−20° C.) was “Unchanged” in each case. Besides, the “Chemical stability (in words)” value in data set [1] (40° C. and 75% RH) was “slightly degraded”.

In the case of `CC1COCCN1c1cc(C(C)(C)C#N)c2c(n1)c(-c1cc[nH]n1)nn2C.CC1COCCN1c1cc(C(C)(C)C#N)c2c(n1)c(-c1cc[nH]n1)nn2C.O=C(O)C(=O)O` (stereo not shown) [Crystalline form a of oxalate], the “Purity (%)” value is 99.54% in data set [1] (4° C., 1 month); 99.60% in data set [1] (4° C., 2 months); 99.55% in data set [1] (4° C., 3 months); 99.53% in data set [1] (25° C./60% RH, 1 month); 99.58% in data set [1] (25° C./60% RH, 2 months); 99.52% in data set [1] (25° C./60% RH, 3 months). Also, the “Purity (%)” value in data set [1] (40° C./75% RH, 1 month) is given as 99.40%; in data set [1] (40° C./75% RH, 2 months), 99.39%; in data set [1] (40° C./75% RH, 3 months), 99.40%; in data set [1] (Initial), 99.57%; in data set [1] (−20° C., 1 month), 99.57%; in data set [1] (−20° C., 2 months) it was 99.51%. For the same compound, the “Purity (%)” value in data set [1] (−20° C., 3 months) is given as 99.46%. Besides, the Crystalline form entry in data set [1] (4° C.), in data set [1] (25° C./60% RH), in data set [1] (40° C./75% RH) and in data set [1] (−20° C.) was “Unchanged” in each case. Moreover, in data set [1] (setting [3]), the “Chemical stability (in words)” value is given as “relatively stable”.

As to `CC1COCCN1c1cc(C(C)(C)C#N)c2c(n1)c(-c1cc[nH]n1)nn2C.Cc1ccc(S(=O)(=O)O)cc1` (stereo not shown) [Crystalline form a of p-toluenesulfonate], the “Purity (%)” value in data set [1] (4° C., 1 month) is 98.13%; in data set [1] (4° C., 2 months) it was 98.19%; in data set [1] (4° C., 3 months) it was 98.17%; in data set [1] (25° C./60% RH, 1 month) it was 98.41%; in data set [1] (25° C./60% RH, 2 months), 98.07%; in data set [1] (25° C./60% RH, 3 months), 98.18%. For the same compound, the “Purity (%)” value is recorded as 97.31% in data set [1] (40° C./75% RH, 1 month); 96.90% in data set [1] (40° C./75% RH, 2 months); 95.57% in data set [1] (40° C./75% RH, 3 months); 98.69% in data set [1] (Initial); 98.46% in data set [1] (−20° C., 1 month); 98.46% in data set [1] (−20° C., 2 months). In data set [1] (−20° C., 3 months), the “Purity (%)” value is listed as 98.66%. The Crystalline form entry in data set [1] (4° C.), in data set [1] (25° C./60% RH), in data set [1] (40° C./75% RH) and in data set [1] (−20° C.) was “Unchanged” throughout. In addition, the “Chemical stability (in words)” value in data set [1] (setting [3]) was “slightly poor stability”.

Consider `CC1COCCN1c1cc(C(C)(C)C#N)c2c(n1)c(-c1cc[nH]n1)nn2C.CS(=O)(=O)O` (stereo not drawn) [Crystalline form α of mesylate], for which the “Purity (%)” value in data set [1] (4° C., 1 month) was 98.66%; in data set [1] (4° C., 2 months) it was 98.65%; in data set [1] (4° C., 3 months), 98.64%; in data set [1] (25° C./60% RH, 1 month), 98.53%; in data set [1] (25° C./60% RH, 2 months) it was 98.54%; in data set [1] (25° C./60% RH, 3 months) it was 98.62%. The “Purity (%)” value came out at 97.00% in data set [1] (40° C./75% RH, 1 month); 97.56% in data set [1] (40° C./75% RH, 2 months); 95.66% in data set [1] (40° C./75% RH, 3 months); 98.72% in data set [1] (Initial); 98.49% in data set [1] (setting [4]); 98.73% in data set [1] (−20° C., 1 month). In addition, the “Purity (%)” value was 98.69% in data set [1] (−20° C., 2 months) and 98.61% in data set [1] (−20° C., 3 months). For the same compound, the Crystalline form entry in data set [1] (4° C.), in data set [1] (25° C./60% RH), in data set [1] (40° C./75% RH) and in data set [1] (−20° C.) was “Unchanged” each time. In data set [1] (40° C. and 75% RH), the “Chemical stability (in words)” value is “slightly degraded”.

Regarding `CC1COCCN1c1cc(C(C)(C)C#N)c2c(n1)c(-c1cc[nH]n1)nn2C.O=S(=O)(O)O` (stereo not drawn) [Crystalline form α of sulfate], the “Purity (%)” value in data set [1] (4° C., 1 month) worked out at 97.07%; in data set [1] (4° C., 2 months) it was 97.29%; in data set [1] (25° C./60% RH, 1 month), 93.00%; in data set [1] (25° C./60% RH, 2 months), 92.90%; in data set [1] (40° C./75% RH, 1 month) it was 89.37%; in data set [1] (40° C./75% RH, 2 months), 83.97%. Also, the “Purity (%)” value in data set [1] (Initial) stood at 97.55%; in data set [1] (setting [4]), 97.70%; in data set [1] (−20° C., 1 month), 97.62%; in data set [1] (−20° C., 2 months), 97.56%. The Crystalline form result in data set [1] (4° C.), in data set [1] (25° C./60% RH), in data set [1] (40° C./75% RH) and in data set [1] (−20° C.) was “Unchanged” each time. In data set [1] (setting [3]), the “Chemical stability (in words)” value is “slightly poor stability”.

As for `C[C@@H]1COCCN1c1cc(C(C)(C)C#N)c2c(n1)c(-c1cc[nH]n1)nn2C` [Example 1, (R)-2-methyl-2-(1-methyl-5-(3-methylmorpholino)-3-(1H-pyrazol-3-yl)-1H-pyrazolo[4,3-b]pyridin-7-yl)propanenitrile], the IC50 (commonly the concentration at which inhibition is half-maximal) at ATR enzyme (1 nM ATR enzyme, 50 nM P53 protein, 7.435 μM ATP, 2 h, read-out: IC50 for ATR enzyme inhibition) came out at 3 nM. The “Max Inhibition (%)” value amounted to 100% on ATR enzyme (ATR enzyme) and 93% with LoVo cells. Also, in data set [2] (read-out: Apparent volume of distribution Vz/F), the Vd/F is 2.06 ± 1.22 L/kg. Moreover, the exposure (AUC) (as a rule, concentration integrated over time) in data set [2] (read-out: Area under curve AUC) amounted to 3200 ± 2750 ng·h/mL. Further, the CL/F in data set [2] (read-out: Clearance CL/F) came out at 17.7 ± 12.4 mL/min/kg. The half-life in data set [2] (read-out: Half-life T1/2 (converted)) is 157 ± 149 min. Also, in data set [2] (read-out: Plasma concentration Cmax), the Cmax amounted to 1110 ± 394 ng/mL. In data set [2] (read-out: Residence time MRT), the MRT (usually a mean duration of stay, worked out from the concentration-time curve) amounted to 3.08 ± 2.31 h.

Source of the values: patent US20240262823A1, “PHARMACEUTICALLY ACCEPTABLE SALT OF PYRAZOLOHETEROARYL DERIVATIVE AND CRYSTAL FORM THEREOF” (JIANGSU HENGRUI PHARMACEUTICALS CO., LTD., priority 2021, published 2024).
